Laboratory results published in patent publication US20130203649A1, “INHIBITORS OF TLR SIGNALING BY TARGETING TIR DOMAIN INTERFACES” (UNIVERSITY OF MARYLAND, BALTIMORE, priority 2012, published 2013).
“Also recorded” adds a separate entry of the source. Residues, ends and D or L forms follow the SMILES beside them. No end group written: not given here.

How the values were obtained:
Format in all cases: cell-based
TLR2 = target: T1, TLR2 (Mus musculus, UniProt Q9QUN7); experiment: Inhibition of TLR2 signaling in thioglycollate-elicited mouse macrophages (effective concentration, TLR2 agonists P3C/P2C); details: mouse macrophages, P3C/P2C
T1 construct: Primary peritoneal macrophages were obtained by peritoneal lavage; endogenous in cells; host or cells: thioglycollate-elicited mouse peritoneal macrophages
T1 sequence (Q9QUN7 25-784): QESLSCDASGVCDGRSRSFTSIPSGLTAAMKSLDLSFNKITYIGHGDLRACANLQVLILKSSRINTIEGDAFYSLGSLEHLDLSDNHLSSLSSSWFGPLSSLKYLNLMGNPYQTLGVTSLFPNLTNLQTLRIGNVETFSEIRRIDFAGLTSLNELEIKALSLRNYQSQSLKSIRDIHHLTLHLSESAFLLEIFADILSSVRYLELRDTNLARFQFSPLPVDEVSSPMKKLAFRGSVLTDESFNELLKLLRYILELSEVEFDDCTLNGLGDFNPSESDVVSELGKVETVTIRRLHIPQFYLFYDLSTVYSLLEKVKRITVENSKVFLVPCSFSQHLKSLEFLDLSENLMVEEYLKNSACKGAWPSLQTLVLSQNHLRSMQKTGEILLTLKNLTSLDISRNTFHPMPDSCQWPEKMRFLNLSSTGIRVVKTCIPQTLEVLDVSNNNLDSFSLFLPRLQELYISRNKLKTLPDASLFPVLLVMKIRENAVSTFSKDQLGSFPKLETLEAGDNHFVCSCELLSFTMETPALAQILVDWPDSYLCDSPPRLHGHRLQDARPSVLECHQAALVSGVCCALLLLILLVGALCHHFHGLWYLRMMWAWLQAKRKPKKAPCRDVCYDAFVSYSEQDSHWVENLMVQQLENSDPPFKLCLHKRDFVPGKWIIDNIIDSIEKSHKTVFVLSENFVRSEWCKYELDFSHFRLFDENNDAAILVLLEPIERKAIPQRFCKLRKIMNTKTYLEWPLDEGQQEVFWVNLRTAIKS
Description: C57BL/6J mice were obtained from The Jackson Laboratory (Bar Harbor, Me.). Primary peritoneal macrophages were obtained by peritoneal lavage 4 days after intraperitoneal injection (3 ml) of sterile 3% thioglycolate broth. Washed cells were resuspended in RPMI 1640 which contained 2% FBS, 1% penicillin:streptomycin and 2 mM L-glutamine. After plating, cells were incubated overnight at 37° C. and then washed with PBS to remove non-adherent cells. Cells were exposed to peptides 30 min before stimulation with a TLR agonist.
(§1) Protein-free Escherichia coli K235 LPS was used at final concentration of 10 ng/ml to stimulate cells. S-[2,3-bis(palmitoyloxy)-(2-RS)-propyl]-N-palmitoyl-(R)-Cys-Ser-Lys4-OH (P3C) and S-[2,3-bis(palmitoyloxy)-(2-RS)-propyl]-[R]-Cys-Ser-Lys4-OH (P2C) were purchased from EMC microcollections GmbH (Tubingen, Germany) and used for cell stimulation at 500 and 50 ng/ml, respectively. Phospho-ERK1/2 and phospho-JNK1/2 rabbit Abs were obtained from Cell Signaling Technology, Inc. β-actin rabbit Ab were from SantaCruz Biotechnology, Inc.
(§2) Because of the role TRAP plays in TLR2 signaling, TIRAP TIR-derived decoy peptide effects on TLR2-induced cytokine mRNA expression were examined. Thioglycollate-elicited mouse macrophages were stimulated either by P2C, an agonist that induces signaling through TLR2/TLR6 heterodimerization, or P3C, a TLR2/TLR1 agonist, and effects of TIRAP TR-derived decoy peptides on induction of cytokine mRNA were examined. […] To confirm the inhibitory effect of TR3 and TR6 on P3C-induced signaling, IL-6 and TNF-α concentration was measured in macrophage supernatants collected 5 h after stimulation of cells with P3C. […] Concordantly, both TR3 and TR6 diminished the P3C-induced ERK phosphorylation (FIG. 3D).
(§3) C57BL/6J mice were obtained from The Jackson Laboratory (BarHarbor, Me.). Harvesting, culturing, and stimulation of peritoneal macrophages were described in previous publications (1, 18, 19). Escherichia coli K235 LPS (34) was used at the final concentration of 100 ng/ml. The 2,3-bis(palmitoyloxy)-(2-RS)-propyl-N-palmitoyl-(R)-Cys-Ser-Lys4-OH (P3C) and S[2,3-bis(palmitoyloxy)-(2-RS)-propyl]-[R]-Cys-Ser-Lys4-OH (P2C) (EMC Microcollections, Tubingen, Germany) were used at 500 and 50 ng/ml, respectively. Oligonucleotide (ODN) 1668 and low m.w. polyinosinic-polycytidylic acid [poly(I:C)] in complex with LyoVec were obtained from InvivoGen; these agonists were used at 2.5 μM and 400 ng/ml, respectively.

TLR2/TLR6 heterodimer = target: T2, TLR2/TLR6 heterodimer (Mus musculus, UniProt Q9QUN7); experiment: P2C-induced cytokine mRNA expression in mouse macrophages; details: P2C 50 ng/ml, 1 h
T2 construct: endogenous in cells; host or cells: thioglycollate-elicited mouse peritoneal macrophages
T2 sequence (Q9QUN7 25-784, one chain of several): as the sequence (Q9QUN7 25-784) above
Description: Total cellular RNA was isolated using Tripure from Roche (San Francisco, Calif.) following manufacture's protocol. RNA was then reverse transcribed using AMV Reverse Transcriptase from Promega (Madison, Wis.) with poly-T priming as per manufacturer's directions. cDNA was then quantified by real-time PCR using Applied Biosystems Fast SYBR Green PCR Master Mix and an ABI Prism 7500HT cycler. Primers used for detection: hypoxanthine phosphoribosyltransferase (HPRT) (forward: […] (SEQ ID NO:51), reverse: […] (SEQ ID NO:52)), TNFα (forward: […] (SEQ ID NO:53), reverse: […] (SEQ ID NO:54)), IL-1β (forward: […] (SEQ ID NO:55), reverse: […] (SEQ ID NO:56)), IFNβ (forward: […] (SEQ ID NO:57), reverse: CTCGGACCACCATCCAGG (SEQ ID NO:58)) and RANTES (forward: […] (SEQ ID NO:59), reverse: […] (SEQ ID NO:60)). The primers were designed using Primer Express 2.0 (Applied Biosystems). Using HPRT as reference, the ΔCt method was used to calculate relative gene expression. One-way ANOVA was preformed, as well as Dunnett's multiple comparison post hoc test with a p≦0.01 selected as the level of significance.
as §1, §2, §3

TLR2/TLR1 heterodimer = target: T3, TLR2/TLR1 heterodimer (Mus musculus, UniProt Q9QUN7); experiment: P3C-induced ERK phosphorylation in primary macrophages (Western analysis); details: P3C 30 min
T3 construct: endogenous in cells; host or cells: thioglycollate-elicited mouse peritoneal macrophages
T3 sequence (Q9QUN7 25-784, one chain of several): as the sequence (Q9QUN7 25-784) above
Description: FIG. 3. Effect of TIRAP decoy peptides on TLR2 signaling. Thioglycollate-elicited macrophages were incubated in the presence of 20 (black columns) or 40 μM (open columns) of a decoy peptide for 30 min prior to stimulation with P3C (500 ng/ml) (A and C) or P2C (50 ng/ml) (B). Cytokine mRNA expression was measured 1 h after TLR2 stimulation and is normalized to the expression of HPRT gene. C. IL-6 and TNF-α were measured by ELISA in macrophage supernatants collected 5 h after P3C (500 ng/ml) stimulation. D. Peptides TR3 and TR6 inhibit ERK activation induced by TLR2 agonist, P3C. ERK phosphorylation was measured by Western analysis in primary macrophage stimulated by P3C for 30 min.
Cellular protein extracts were isolated by addition of 240 μL per well cold lysate buffer (20 mM Tris, 50 mM NaCl, 1.5 mM MgCl2, 2 mM EDTA, 10 mM NaF, 2 Mm DTT, 1 mM Na3VO4, 1% Triton). Cells were incubated with lysis solution for 30 min on agitator at 4° C. […] After quantification using BioRad protein assay, protein samples were added to Laemmli buffer and then boiled for 10 min. […]
Because of the role TRAP plays in TLR2 signaling, TIRAP TIR-derived decoy peptide effects on TLR2-induced cytokine mRNA expression were examined. […] To confirm the inhibitory effect of TR3 and TR6 on P3C-induced signaling, IL-6 and TNF-α concentration was measured in macrophage supernatants collected 5 h after stimulation of cells with P3C. […]

Compound	Inhibition of TLR2 signaling (overall) (TLR2)	P2C-induced TNFα and IL-1β mRNA (TLR2/TLR6 heterodimer; 20 μM peptide)	P2C-induced TNFα and IL-1β mRNA (TLR2/TLR6 heterodimer; 40 μM peptide)	P3C-induced ERK phosphorylation (TLR2/TLR1 heterodimer)
CC[C@H](C)[C@H](NC(=O)[C@H](CCCCN)NC(=O)[C@@H](NC(=O)[C@H](CCC(N)=O)NC(=O)[C@@H](N)CCCNC(=N)N)[C@@H](C)CC)C(=O)N[C@@H](Cc1c[nH]c2ccccc12)C(=O)N[C@@H](Cc1ccccc1)C(=O)N[C@@H](CCC(N)=O)C(=O)N[C@@H](CC(N)=O)C(=O)N[C@@H](CCCNC(=N)N)C(=O)N[C@@H](CCCNC(=N)N)C(=O)N[C@@H](CCSC)C(=O)N[C@@H](CCCCN)C(=O)N[C@@H](Cc1c[nH]c2ccccc12)C(=O)N[C@@H](CCCCN)C(=O)N[C@@H](CCCCN)C(=O)N[C@@H](CCC(=O)O)C(=O)N[C@@H](CC(C)C)C(=O)N[C@@H](CS)C(=O)N[C@@H](CCC(N)=O)C(=O)N[C@@H](C)C(=O)N[C@@H](CC(C)C)C(=O)N[C@@H](CO)C(=O)N[C@@H](CCCNC(=N)N)C(=O)N[C@@H](CO)C(=O)N[C@@H](Cc1c[nH]cn1)C(=O)N[C@@H](CS)C(=O)N[C@@H](CCCNC(=N)N)C(=O)O [TR5] (H-RQIKIWFQNRRMKWKKELCQALSRSHCR-OH)	does not			
RQIKIWFQNRRMKWKKEGSQASLRCF [TR3]	inhibits	significantly less	did not affect significantly	diminished; also recorded: inhibit
RQIKIWFQNRRMKWKKPGFLRDPWCKYQML [TR6]		significantly less	did not affect significantly	diminished; also recorded: inhibit
